# In US20030171368A1, “Pyrimidinonesulfamoylureas`” (priority 2002, published 2003):
# System: not listed separately
# Assay: Solubility in water (10 mg in 1 ml H2O, shaken, centrifuged, HPLC against DMSO solution)
# Type: physicochemical
# Details: 10 mg substance in 1 ml H2O, shaken 10 minutes, supernatant measured by HPLC
# Method: The compounds of the general formula I according to the invention are distinguished in comparison to the substances described in WO 00/61551 by more advantageous physicochemical properties, in particular an improved solubility in water.
# 10 mg of the substance to be investigated were dissolved in 1 ml of DMSO, vigorously shaken for 10 minutes and then centrifuged for 10 minutes at 10000 rpm and diluted with a mixture of 5% CH3CN/H2O+0.1% TFA 1:10.
# 10 mg of substance were mixed with 1 ml of H2O, vigorously shaken for 10 minutes and centrifuged for 10 minutes at 10000 rpm. The supernatant was removed and likewise diluted. Both solutions were measured by HPLC (column: MACHEREY & NAGEL, Nucleosil C18 PPN, 100×2.1 mm ID, 5μ, temp: 40° C.) and the concentration of the aq. solution was determined.
row,Compound,Solubility (H2O) [µg/mL]
1,CCOC(=O)N[C@@H](Cn1cc(C)c(N2CCC(CNc3nc4ccccc4[nH]3)CC2)nc1=O)C(=O)O.Cl [(2S)-3-(4-{4-[(1H-Benzimidazol-2-ylamino)methyl]-1-piperidlnyl}-5-methyl-2-oxo-1(2H)-pyrimidinyl)-2-[(ethoxycarbonyl)amino]propanoic acid (hydrochloride)],560

# Same assay, conditions: water, thermodynamic from solid, 10 mg substance in 1 ml H2O, shaken 10 minutes, supernatant measured by HPLC
row,Compound,solubility at 10 min [µg/mL]
1,CC(=O)O.Cc1cn(C[C@H](NS(=O)(=O)c2ccccc2)C(=O)O)c(=O)nc1N1CCC(CNc2nc3ccccc3[nH]2)CC1 [(2S)-3-(4-{4-[(1H-Benzimidazol-2-ylamino)methyl]-1-piperidinyl}-5-methyl-2-oxo-1(2H)-pyrimidinyl)-2-[(phenylsulfonyl)amino]propanoic acid (acetate)],< 50
2,CCNC(=O)N[C@@H](Cn1cc(C)c(N2CCC(CNc3nc4ccccc4[nH]3)CC2)nc1=O)C(=O)O [(2S)-3-(4-{4-[(1H-Benzimidazol-2-ylamino)methyl]-1-piperidinyl}-5-methyl-2-oxo-1(2H)-pyrimidinyl)-2-{[(ethylamino)carbonyl]amino}propanoic acid],860
3,CC(=O)N[C@@H](Cn1cc(C)c(N2CCC(CNc3nc4ccccc4[nH]3)CC2)nc1=O)C(=O)O.Cl [(2S)-2-(Acetylamino)-3-(4-{4-[(1H-benzimidazol-2-ylamino)methyl]-1-piperidinyl}-5-methyl-2-oxo-1(2H)-pyrimidinyl)propanoic acid (hydrochloride)],1000
4,Cc1cn(C[C@H](NC(=O)N(C)C)C(=O)O)c(=O)nc1N1CCC(CNc2nc3ccccc3[nH]2)CC1.Cl [(2S)-3-(4-{4-[(1H-Benzimidazol-2-ylamino)methyl]-1-piperidinyl}-5-methyl-2-oxo-1(2H)-pyrimidinyl)-2-{[(dimethylamino)carbonyl]amino}propanoic acid (hydrochloride)],810
5,Cc1cn(C[C@H](NS(C)(=O)=O)C(=O)O)c(=O)nc1N1CCC(CNc2nc3ccccc3[nH]2)CC1.Cl [(2S)-3-(4-{4-[(1H-Benzimidazol-2-ylamino)methyl]-1-piperidinyl}-5-methyl-2-oxo-1(2H)-pyrimidinyl)-2-[(methylsulfonyl)amino]propanoic acid (hydrochloride)],< 50
6,"Cc1cn(C[C@H](NS(=O)(=O)N(C)C)C(=O)O)c(=O)nc1N1CCC(CNc2nc3ccccc3[nH]2)CC1.Cl.Cl [Example 2, (2S)-3-(4-{4-[(1H-Benzimidazol-2-ylamino)methyl]-1-piperidinyl}-5-methyl-2-oxo-1 (2H)-pyrimidinyl)-2-{[(dimethylamino)sulfonyl]amino}propionic acid (dihydrochloride)]",2500

# Target: T1, integrin αvβ3 (Homo sapiens, UniProt P05106+P06756)
# T1 construct: from tissue; host or cells: human placenta
# Assay: Integrin αvβ3 assay: competition between vitronectin and test substance for binding to solid phase-bound integrin αvβ3
# Details: competition with human vitronectin; result in words only
# Method: For the identification and assessment of integrin αvβ3 ligands, a test system was used which is based on competition between the natural integrin αvβ3 ligand vitronectin and the test substance for binding to solid phase-bound integrin αvβ3. […]
# coat microtiter plates with 250 ng/ml of integrin αvβ3 in 0.05 M NaHCO3 pH 9.2; 0.1 ml/well; overnight/4° C. saturate with 1% milk powder/assay buffer; 0.3 ml/well; 0.5 h/RT wash 3× with 0.05% Tween 20/assay buffer test substance in 0.1% milk powder/assay buffer, 50 μl/well +0 μg/ml or 2 μg/ml of human vitronectin (Boehringer Ingelheim T007) in 0.1% milk powder/assay buffer, 50 μl/well; 1 h/RT […]
# 1 μg/ml of anti-human vitronectin antibody coupled to peroxidase (Kordia SAVN-APHRP) in 0.1% milk powder/assay buffer; 0.1 ml/well; 1 h/RT […]
# 0.1 ml/well of peroxidase substrate stop reaction with 0.1 ml/well of 2 M H2SO4 measurement of the absorption at 450 nm
# Integrin αvβ3: Human placenta is solubilized with Nonidet and integrin αvβ3 is affinity-purified on a GRGDSPK matrix (elution mit EDTA). Impurities due to integrin […] and human serum albumin, and the detergent and EDTA are removed by anion exchange chromatography. […]
row,Compound,IC50 values (concentration of the ligand at which 50% of the ligand is displaced)
1,"Cc1cn(C[C@H](NS(=O)(=O)N(C)C)C(=O)O)c(=O)nc1N1CCC(CNc2ccccn2)CC1 [Example 9, (2S)-2-{[(Dimethylamino)sulfonyl]amino}-3-(5-methyl-2-oxo-4-{4-[(2-pyridinylamino)-methyl]-1-piperidinyl}-1 (2H)-pyrimidinyl)propionic acid]",best results
2,"Cc1cn(C[C@H](NS(=O)(=O)N(C)C)C(=O)O)c(=O)nc1N1CCC(CNc2nc3ccccc3[nH]2)CC1.Cl.Cl [Example 2, (2S)-3-(4-{4-[(1H-Benzimidazol-2-ylamino)methyl]-1-piperidinyl}-5-methyl-2-oxo-1 (2H)-pyrimidinyl)-2-{[(dimethylamino)sulfonyl]amino}propionic acid (dihydrochloride)]",best results
